Consider 27 molecules from patent US9861635B2, “Macrocycles as kinase inhibitors” (Merck Patent GmbH, priority 2013, dated 2018).

For the first assay, the target named is T1, GCN2 (Homo sapiens, UniProt Q9P2K8). Description: Cellular assay of GCN2 activity (phospho-eIF2alpha immunocytochemistry in U2OS cells, tryptophanol). The assay is classed as cell-based. On the set-up: endogenous in cells; host or cells: U2OS. The settings on record: 2 h compound, 600 μM tryptophanol 30 min. The protocol: Cellular Assay for the Determination of Compound Activities
T1 sequence (Q9P2K8 whole entry): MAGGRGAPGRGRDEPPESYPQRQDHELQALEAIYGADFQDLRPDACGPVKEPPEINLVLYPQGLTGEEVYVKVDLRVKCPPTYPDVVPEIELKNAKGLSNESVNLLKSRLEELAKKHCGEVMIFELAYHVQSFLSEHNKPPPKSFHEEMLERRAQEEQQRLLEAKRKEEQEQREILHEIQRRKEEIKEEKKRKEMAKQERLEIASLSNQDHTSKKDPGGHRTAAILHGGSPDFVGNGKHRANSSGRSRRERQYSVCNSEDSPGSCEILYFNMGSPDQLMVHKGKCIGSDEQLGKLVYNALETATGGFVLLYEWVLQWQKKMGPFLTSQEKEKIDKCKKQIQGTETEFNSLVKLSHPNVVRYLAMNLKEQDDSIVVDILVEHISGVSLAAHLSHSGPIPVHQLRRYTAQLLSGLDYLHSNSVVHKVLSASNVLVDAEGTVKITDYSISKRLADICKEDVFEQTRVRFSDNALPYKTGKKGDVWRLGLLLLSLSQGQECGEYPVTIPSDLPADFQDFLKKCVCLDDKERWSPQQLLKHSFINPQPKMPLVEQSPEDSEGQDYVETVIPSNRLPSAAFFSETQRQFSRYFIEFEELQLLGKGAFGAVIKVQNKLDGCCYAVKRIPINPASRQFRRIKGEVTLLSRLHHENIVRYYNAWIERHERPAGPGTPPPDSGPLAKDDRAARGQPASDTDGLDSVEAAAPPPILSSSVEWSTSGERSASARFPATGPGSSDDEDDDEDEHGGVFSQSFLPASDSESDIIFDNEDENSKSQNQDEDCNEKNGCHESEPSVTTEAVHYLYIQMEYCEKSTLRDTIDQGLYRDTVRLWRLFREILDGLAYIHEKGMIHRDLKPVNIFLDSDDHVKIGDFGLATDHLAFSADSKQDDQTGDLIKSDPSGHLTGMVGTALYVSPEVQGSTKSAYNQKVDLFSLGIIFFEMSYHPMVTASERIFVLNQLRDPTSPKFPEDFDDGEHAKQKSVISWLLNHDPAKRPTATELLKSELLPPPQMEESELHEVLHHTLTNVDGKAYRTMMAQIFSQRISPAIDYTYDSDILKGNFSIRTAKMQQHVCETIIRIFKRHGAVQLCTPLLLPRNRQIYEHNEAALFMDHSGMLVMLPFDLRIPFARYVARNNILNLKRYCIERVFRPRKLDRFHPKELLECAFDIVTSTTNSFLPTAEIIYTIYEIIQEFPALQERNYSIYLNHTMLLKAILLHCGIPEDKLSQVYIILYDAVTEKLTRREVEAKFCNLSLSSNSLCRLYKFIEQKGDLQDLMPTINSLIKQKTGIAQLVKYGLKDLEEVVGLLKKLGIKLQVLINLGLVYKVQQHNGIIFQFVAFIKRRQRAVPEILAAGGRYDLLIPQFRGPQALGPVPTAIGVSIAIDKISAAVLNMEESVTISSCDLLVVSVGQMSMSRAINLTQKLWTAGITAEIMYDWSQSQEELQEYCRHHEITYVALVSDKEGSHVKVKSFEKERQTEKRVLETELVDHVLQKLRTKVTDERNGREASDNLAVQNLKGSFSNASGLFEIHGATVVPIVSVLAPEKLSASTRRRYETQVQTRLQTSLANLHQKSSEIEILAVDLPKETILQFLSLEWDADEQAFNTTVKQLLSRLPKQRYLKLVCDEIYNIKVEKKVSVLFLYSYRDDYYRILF
Human U2OS cells (2000 cells/well) are seeded into 384-well plates and incubated for 20 hours.
The next day, the cells are treated with the test compounds and incubated for 2 hours. Then, tryptophanol, at a final concentration of 600 μM, is added to the cells and those are incubated for 30 minutes.
The analysis of cellular GCN2 activities is done by immunocytochemistry. Briefly, cells are fixated on the well surfaces by formaldehyde and permeabilized with Triton X-100. The primary antibody (anti-phospho-eIF2alpha (Ser51, Cell Signalling Technology, #3398) is incubated on the treated cells for 20 hours, followed by a 60 minutes incubation of the secondary antibody (anti-rabbit-IgG-Alexa 488; Molecular Probes #11008).
The analysis and quantification of phosphorylated GCN2 is done by scanning the plates in the Acumen Explorer system (TTPLabtech). The obtained data are normalised against the untreated control wells (DMSO only) and expressed as % effect values. The determination of IC50 values is done by using the Graph Pad Prism software.
`O=C1CCCCOc2ccc(cc2)-n2nnc3cnc(nc32)Nc2cnn(c2)CCCN1` [Compound A26] yielded an IC50 below 1 µM.

The target of the next assay is T1, GCN2. Description: GCN2 enzyme assay (TR-FRET Lanthascreen, GFP-eIF2alpha substrate). The settings on record: 10 μM ATP, 80 nM GFP-eIF2a, 30 nM GCN2. The class given is biochemical. The source says:
GCN2: Assay Principle & Conditions
This assay can quantificate the activity of the serin kinase GCN2 (general control non-derepressible-2).
This kinase is involved in the stress metabolism of cells. It is activated upon starvation (amino acid depletion). Its natural substrate is eIF2a (eukaryotic initiation factor 2 alpha subunit), a translation factor, which gets activated (phosphorylated) by GCN2 in case of an amino acid bottleneck in the cells. This in turn leads to a halt of the protein synthesis. Inhibition of GCN2 results in stopping this mechanism: The cell can not stop protein production upon “starvation” stress.
The assay is run in two steps: the enzymatic reaction and the detection step. In the first step GCN2 is incubated with 10 μM ATP and 80 nM of the GFP-labelled substrate eIF2alpha at room temperature.
The enzymatic reaction is stopped by addition of EDTA. The amount of phosphorylated eIF2alpha is determined by TR-FRET (Lanthascreen): A complex is formed consisting of antibody and GFP labelled phospho-eIF2a, which allows a FRET upon excitation at 340 nm.
The GCN2-activity is directly proportional to the ratio of fluorescence units at the emission wavelength 520 nm (phosphopeptide-sensitive wavelength=emission of GFP) to the units at 495 nm (reference wavelength=emission of Terbium-chelate).
Final Concentrations in the Enzymatic Reaction
Background: Time-resolved FRET reads energy transfer from a long-lived donor to a nearby acceptor.
The molecule `O=C1CCOc2ccc(cc2)-n2nnc3cnc(nc32)Nc2cnn(c2)CCCN1` [Compound A1, 2,7-diaza-11-oxa-3H-1(5,3)-[1,2,3]triazolo[4,5-d]pyrimidina-1H-3(4,1)-pyrazola-12(1,4)-benzenacyclododecaphane-8-one] yielded an IC50 below 1 µM.
On the same count and under the same terms, the value for `O=C1CCCOc2ccc(cc2)-n2nnc3cnc(nc32)Nc2cnn(c2)CCCN1` [Compound A2] was below 1 µM; that for `O=C1COc2ccc(cc2)-n2nnc3cnc(nc32)Nc2cnn(c2)CCCN1` [Compound A3] was 1 to 5 µM.
On the same count and under the same terms, for `O=C1CCCOc2ccc(cc2)-n2nnc3cnc(nc32)Nc2ccc(cc2)OCCCCN1` [Compound A4] the value was below 1 µM; for `O=C1CCOc2ccc(cc2)-n2nnc3cnc(nc32)Nc2ccc(cc2)CCCN1` [Compound A5], 5 to 10 µM; for `O=C1CCCOc2ccc(cc2)-n2nnc3cnc(nc32)Nc2ccc(cc2)CCCN1` [Compound A6], 1 to 5 µM.
Turning to `O=C1CCCCOc2ccc(cc2)Nc2ncc3nnn(c3n2)-c2cnn(c2)CCCN1` [Compound A7], the IC50 was below 1 µM.
For `O=C1CCn2cc(cn2)-n2nnc3cnc(nc32)Nc2ccc(cc2)OCCCN1` [Compound A8], the IC50 is 5 to 10 µM.
The same measure, in the same setting: the value for `O=C1CCn2cc(cn2)-n2nnc3cnc(nc32)Nc2ccc(cc2)OCCCCN1` [Compound A9] was 5 to 10 µM.
The molecule `c1nn2cc1Nc1ncc3nnn(c3n1)-c1ccc(cc1)OCCNCCC2` [Compound A10] came in with an IC50 below 1 µM.
Still for that read-out and setting: the value for `O=C1CCn2cc(cn2)-n2nnc3cnc(nc32)Nc2cccc(c2)OCCCN1` [Compound A11] was below 1 µM; that for `CN1CCCCn2cc(cn2)Nc2ncc3nnn(c3n2)-c2ccc(cc2)OCCCCC1=O` [Compound A12] was below 1 µM; that for `O=C1CCCOc2ccc(cc2)-n2nnc3cnc(nc32)Nc2cccc(c2)OCCCN1` [Compound A13] was below 1 µM.
As for `O=C1CCCOc2ccc(cc2)-n2cnc3cnc(nc32)Nc2cnn(c2)CCCN1` [Compound A14], the IC50 is below 1 µM.
`O=C1CCCOc2ccc(cc2)-n2cnc3cnc(nc32)Nc2ccc(cc2)OCCCN1` [Compound A15]: the IC50 is below 1 µM.
`O=C1CCCCOc2ccc(cc2)-n2cnc3cnc(nc32)Nc2ccc(cc2)OCCCN1` [Compound A16] had an IC50 below 1 µM.
Molecule `O=C1CCCCOc2ccc(cc2)-n2nnc3cnc(nc32)Nc2cnn(c2)CCC2CCN1CC2` [Compound A17] gave an IC50 of 1 to 5 µM.
In the case of `O=C1CCCOc2ccc(cc2)-n2cnc3cnc(nc32)Nc2ccc(cc2)CCCN1` [Compound A18], the IC50 was below 1 µM.
`O=C1CCCCOc2ccc(cc2)-n2cnc3cnc(nc32)Nc2ccc(cc2)CCCN1` [Compound A19] registered an IC50 below 1 µM.
In the case of `O=C1CCCOc2ccc(cc2)-n2cnc3cnc(nc32)Nc2cnn(c2)CCCO1` [Compound A20], the IC50 lay in the range of 1 to 5 µM.
In turn, `O=C1CCCOc2ccc(cc2)-n2nnc3cnc(nc32)Nc2cnn(c2)CCN2CCN(CCCN1)CC2` [Compound A21] yielded an IC50 below 1 µM.
With `O=C1CCCn2cc(cn2)Nc2ncc3nnn(c3n2)-c2ccc(cc2)CN1` [Compound A22], the IC50 was 1 to 5 µM.
`O=C1CCCn2cc(cn2)Nc2ncc3nnn(c3n2)-c2cnn(c2)CCCN1` [Compound A23] showed an IC50 below 1 µM.
In the case of `O=C1CCCn2cc(cn2)Nc2ncc3nnn(c3n2)-c2ccc(cc2)OCCCN1` [Compound A24], the IC50 was below 1 µM.
For `c1cc2ccc1CCNCCCCn1cc(cn1)Nc1ncc3nnn-2c3n1` [Compound A25], the IC50 is below 1 µM.
In turn, `O=C1CCCCOc2ccc(cc2)-n2nnc3cnc(nc32)Nc2cnn(c2)CCCN1` [Compound A26] had an IC50 below 1 µM.
Regarding `O=C1CCCc2ccc(cc2)Nc2ncc3ncn(c3n2)-c2ccc(cc2)OCCCCN1` [Compound A27], the IC50 was 1 to 5 µM.

A word on the IC50: it is the concentration needed to halve the response being measured. A high value points to a need for much substance.
